Assay results as given in the NIST ThermoML archive (doi:10.1016/j.fluid.2014.01.019).

Experiment: xn = mol fraction of the nth substance listed
Conditions: 101 kPa, Liquid; for mass density: Vibrating tube method; for speed of sound: Frequency=2 MHz, Linear variable-path acoustic interferometer

Cc1ccccc1Cl [2-chlorotoluene] + OCc1ccccc1
Conditions	mass density, 298.15 K [kg/m3]	mass density, 303.15 K [kg/m3]	mass density, 308.15 K [kg/m3]	mass density, 313.15 K [kg/m3]	speed of sound, 303.15 K [m/s]	speed of sound, 313.15 K [m/s]
x2 = 0.0507	1074.83	1071.16	1066.48	1061.94	1301	1296
x2 = 0.1134	1072.8	1068.97	1064.3	1059.77	1320	1308
x2 = 0.1507	1071.57	1067.66	1062.99	1058.47	1332	1316
x2 = 0.1894	1070.31	1066.29	1061.66	1057.14	1344	1325
x2 = 0.2477	1068.37	1064.25	1059.65	1055.13	1360	1336
x2 = 0.3059	1066.42	1062.2	1057.64	1053.16	1377	1348
x2 = 0.3686	1064.3	1060	1055.47	1051.04	1394	1360
x2 = 0.4535	1061.39	1057.02	1052.56	1048.18	1415	1377
x2 = 0.5385	1058.41	1054.04	1049.63	1045.3	1436	1393
x2 = 0.6309	1055.16	1050.78	1046.46	1042.2	1456	1411
x2 = 0.7003	1052.67	1048.32	1044.08	1039.89	1469	1426
x2 = 0.7723	1050.04	1045.77	1041.59	1037.48	1482	1442
x2 = 0.8537	1047.01	1042.88	1038.81	1034.72	1496	1458
x2 = 0.8902	1045.64	1041.6	1037.56	1033.55	1499	1466
x2 = 0.9547	1043.18	1039.28	1035.35	1031.4	1508	1478

Cc1ccccc1[N+](=O)[O-] [2-nitrotoluene] + OCc1ccccc1
Conditions	mass density, 298.15 K [kg/m3]	mass density, 303.15 K [kg/m3]	mass density, 308.15 K [kg/m3]	mass density, 313.15 K [kg/m3]	speed of sound, 303.15 K [m/s]	speed of sound, 313.15 K [m/s]
x2 = 0.0534	1153.93	1148.05	1144.09	1139.21	1444	1406
x2 = 0.1227	1146.45	1140.66	1136.63	1131.74	1449	1411
x2 = 0.1912	1138.96	1133.26	1129.16	1124.32	1454	1418
x2 = 0.2352	1134.11	1128.45	1124.35	1119.53	1458	1421
x2 = 0.2997	1126.89	1121.35	1117.19	1112.42	1462	1427
x2 = 0.3713	1118.76	1113.36	1109.17	1104.47	1467	1432
x2 = 0.4567	1108.91	1103.69	1099.48	1094.85	1474	1440
x2 = 0.5416	1098.93	1093.89	1089.68	1085.15	1480	1447
x2 = 0.6038	1091.49	1086.61	1082.42	1077.95	1485	1452
x2 = 0.6536	1085.47	1080.69	1076.51	1072.12	1489	1457
x2 = 0.7025	1079.47	1074.82	1070.68	1066.34	1493	1461
x2 = 0.743	1074.47	1069.91	1065.79	1061.49	1495	1464
x2 = 0.8128	1065.71	1061.34	1057.26	1053.06	1501	1471
x2 = 0.8551	1060.33	1056.07	1052.04	1047.91	1505	1474
x2 = 0.9351	1050	1045.96	1042.02	1038.01	1510	1481

Cc1cccc(Cl)c1 [3-chlorotoluene] + OCc1ccccc1
Conditions	mass density, 298.15 K [kg/m3]	mass density, 303.15 K [kg/m3]	mass density, 308.15 K [kg/m3]	mass density, 313.15 K [kg/m3]	speed of sound, 303.15 K [m/s]	speed of sound, 313.15 K [m/s]
x2 = 0.0583	1065.82	1061.18	1056.8	1052.23	1298	1294
x2 = 0.1107	1064.36	1059.84	1055.47	1050.83	1316	1304
x2 = 0.1903	1062.34	1057.86	1053.42	1048.82	1340	1321
x2 = 0.2401	1061.05	1056.6	1052.17	1047.95	1356	1331
x2 = 0.3028	1059.47	1055.2	1050.6	1046.35	1374	1343
x2 = 0.3703	1057.61	1053.44	1048.89	1044.54	1394	1356
x2 = 0.4442	1055.83	1051.49	1047.05	1042.9	1414	1371
x2 = 0.5405	1053.04	1049.21	1044.67	1040.69	1440	1389
x2 = 0.6285	1050.88	1046.99	1042.53	1038.52	1462	1409
x2 = 0.7019	1049.03	1045.09	1040.75	1036.95	1477	1422
x2 = 0.7558	1047.64	1043.62	1039.43	1035.23	1487	1435
x2 = 0.8109	1046.31	1042.35	1038.15	1034.05	1494	1446
x2 = 0.8546	1045.2	1041.4	1037.11	1033.02	1501	1455
x2 = 0.8946	1044.04	1040.31	1036.18	1032.43	1504	1462
x2 = 0.9498	1042.49	1038.83	1034.89	1030.91	1510	1474

Cc1cccc([N+](=O)[O-])c1 [3-nitrotoluene] + OCc1ccccc1
Conditions	mass density, 298.15 K [kg/m3]	mass density, 303.15 K [kg/m3]	mass density, 308.15 K [kg/m3]	mass density, 313.15 K [kg/m3]	speed of sound, 303.15 K [m/s]	speed of sound, 313.15 K [m/s]
x2 = 0.0537	1146.83	1141.95	1137.26	1132.52	1446	1414
x2 = 0.1225	1139.74	1134.93	1130.25	1125.57	1451	1419
x2 = 0.1914	1132.59	1127.81	1123.19	1118.56	1456	1424
x2 = 0.2356	1127.96	1123.23	1118.65	1114.02	1459	1427
x2 = 0.2992	1121.25	1116.57	1112.02	1107.46	1464	1432
x2 = 0.3717	1113.52	1108.89	1104.4	1099.9	1469	1438
x2 = 0.4567	1104.33	1099.76	1095.34	1090.91	1476	1444
x2 = 0.5413	1095.03	1090.53	1086.18	1081.85	1481	1452
x2 = 0.6035	1088.09	1083.66	1079.37	1075.08	1486	1456
x2 = 0.6539	1082.39	1078.02	1073.77	1069.5	1490	1460
x2 = 0.7023	1076.86	1072.56	1068.36	1064.17	1494	1463
x2 = 0.7437	1072.1	1067.84	1063.65	1059.52	1496	1467
x2 = 0.8121	1064.1	1059.94	1055.82	1051.76	1502	1472
x2 = 0.8556	1058.96	1054.85	1050.78	1046.79	1505	1475
x2 = 0.9354	1049.37	1045.39	1041.41	1037.5	1511	1481

Cc1ccc(Cl)cc1 [4-chlorotoluene] + OCc1ccccc1
Conditions	mass density, 298.15 K [kg/m3]	mass density, 303.15 K [kg/m3]	mass density, 308.15 K [kg/m3]	mass density, 313.15 K [kg/m3]	speed of sound, 303.15 K [m/s]	speed of sound, 313.15 K [m/s]
x2 = 0.0509	1063.78	1058.47	1053.11	1048.16	1292	1248
x2 = 0.1252	1062.11	1056.85	1051.49	1046.61	1327	1265
x2 = 0.1878	1060.69	1055.5	1050.13	1045.28	1350	1281
x2 = 0.2309	1059.7	1054.46	1049.19	1044.4	1370	1288
x2 = 0.3028	1058.05	1052.76	1047.63	1042.92	1394	1307
x2 = 0.3649	1056.62	1051.58	1046.32	1041.65	1415	1325
x2 = 0.4393	1054.9	1049.98	1044.75	1040.17	1439	1343
x2 = 0.5424	1052.48	1047.59	1042.61	1038.12	1468	1369
x2 = 0.6094	1050.91	1046.21	1041.23	1036.83	1480	1387
x2 = 0.6598	1049.71	1045.06	1040.21	1035.88	1493	1399
x2 = 0.7028	1048.68	1044.09	1039.35	1035.06	1502	1410
x2 = 0.7557	1047.41	1042.91	1038.31	1034.1	1506	1423
x2 = 0.8153	1045.97	1041.58	1037.16	1033.02	1511	1437
x2 = 0.8539	1045.04	1040.74	1036.42	1032.32	1513	1448
x2 = 0.9235	1043.33	1039.23	1035.1	1031.15	1514	1465
